# Literature values as cited in US7887848B2, “Nutraceutical treatments for diabetic and non-diabetic wound healing” (Interhealth Nutraceuticals, Inc., priority 2006, dated 2011).
structure (smiles),measurement,setting,value
OO [H2O2],beneficial effect on wounds,H2O2 at strength of 3%,no beneficial effect
same,dermal wound healing,topical H2O2 (Roy et al. 2006),facilitates dermal wound healing
